Experimental data taken from patent US20240207297A1 (priority 2021, published 2024).
Converted amounts (≈) assume the structure as drawn.

Key:
SARS-CoV = settings: cited from earlier work
[1] = system: SARS-CoV-2 early Wuhan strain (CMC-1); test: microbe, parasite or virus in culture; assay type: cell-based
[2] = system: SARS-CoV-2 (COVID-19 disease); test: Treatment of SARS-CoV-2 positive patients with oral Nystatin tablets
VERO E6 cell line = settings: Tables 1, 2 and FIGS. 3A, 3B

**Q.** For `C[C@@H]1[C@H](O)[C@@H](C)/C=C/C=C/CC/C=C/C=C/C=C/C=C/[C@H](OC2O[C@@H](C)[C@H](O)[C@@H](N)[C@H]2O)C[C@@H]2OC(O)(C[C@@H](O)[C@H](O)CC[C@@H](O)C[C@@H](O)C[C@@H](O)CC(=O)O[C@H]1C)C[C@H](O)[C@H]2C(=O)O` (some centres unmarked) [Nystatin, nystatin], which “effectiveness against SARS-CoV in vivo” value (SARS-CoV) is on record?
**A.** Its value is “not proved to be effective”.

**Q.** And the “microscopic image of tissue culture at the end of the incubation period” value ([1]; CMC-1 virus treated with 60 μg/ml nystatin, FIG. 4C)?
**A.** The value was “both cells with lysed and intact morphology can be seen”.

**Q.** What about the IC50 ([1]; Severe acute respiratory syndrome coronavirus 2, Vero C1008) of the same molecule?
**A.** The IC50 was 60 µg/mL (≈ 64.8 µM).

**Q.** And the “course of complaints under treatment” value ([2]; Patient 1, 3×2 Nystatin tablets (500,000 IU) per day for 10 days)?
**A.** The value was “complaints steadily decreased and disappeared after 10 days”.

**Q.** And the “course of complaints under treatment” value ([2]; Patient 2, 3×2 Nystatin tablets (500,000 IU) per day for 15 days)?
**A.** Its value is “free of complaints”.

**Q.** What about the “course of complaints under treatment” value ([2]; Patient 3, 3×2 Nystatin tablets (500,000 IU) per day for 15 days) of the same molecule?
**A.** Its value is “free of complaints”.

**Q.** And the body temperature ([2]; Patient 4, 9 Apr. 2021 (day 9), one day after start of Nystatin, before 39-39.8° C.)?
**A.** The body temperature was 37.5 °C.

**Q.** What about the body temperature ([2]; Patient 4, 10 Apr. 2021 (day 10)) of the same molecule?
**A.** Its body temperature is 36.9 °C.

**Q.** And the body temperature ([2]; Patient 4, 11 Apr. 2021 (day 11))?
**A.** The body temperature was 36.3 °C.

**Q.** And the state after treatment ([2]; Patient 4, Nystatin from 8 Apr. 2021, 3×2 tablets daily, state on 14 Apr. 2021)?
**A.** Its state after treatment is ““post-covid” asymptomatic state”.

**Q.** What about the “toxicity of nystatin itself to the cultured cells” value (VERO E6 cell line) of the same molecule?
**A.** Its value is “toxic to the cultured cells”.
